Patent publication US9963496B2, “Stable glucagon analogues and use for treatment of hypoglycaemia” (Novo Nordisk A/S, priority 2014, dated 2018)
*1 amine or outer side, *2 acyl side, *3 side chain or, on linkers, in order; H or OH if unused. Where a SMILES comes first, the peptide text is derived from it. Side-chain parts run from the residue outwards. [ ]: non-standard residue; d: D form. The star is where a group is joined. γGlu = O=C(O)[C@H](CCC(=O)[*:2])N[*:1]; Desaminohistidyl = O=C(CCc1c[nH]cn1)*; Aib = CC(C)(N)C(=O)O

Columns and labels:
human glucagon receptor = target: T1, human glucagon receptor (Homo sapiens, UniProt P47871); test: Assay (I)(b): glucagon receptor activation, CRE luciferase reporter gene assay in BHK cells; format: cell-based; settings: BHK cells expressing human glucagon receptor and CRE luciferase, 3 h incubation; read-out: EC50 hGlucagonR
T1 construct: expressed in transfected cells; host or cells: BHK cells, clone BHK hGCGR A3*25; isolated membranes
Procedure: The purpose of this assay is to test the activity, or potency, of the derivatives of the invention, in vitro. The in vitro potency is the measure of human GLP-1 receptor and/or glucagon receptor activation, respectively, in a whole cell assay.
In vitro potency was determined by measuring the response of human GLP-1 or glucagon receptor, respectively, in a reporter gene assay. The assay was performed in a stably transfected BHK cell line that expressed either the human GLP-1 receptor or the human glucagon receptor and contained the DNA for the cAMP response element (CRE) coupled to a promoter and the gene for firefly luciferase (CRE luciferase). […] When assay incubation was completed, the luciferase substrate (luciferin) was added and the enzyme converted luciferin to oxyluciferin and produced bioluminescence. The luminescence was measured as the readout for the assay.
(b) Glucagon Receptor Activation
The cells used in this assay (clone pLJ6′-4-25) were BHK cells with BHK570 as a parent cell line expressing the CRE luciferase gene (clone BHK/KZ10-20-48) and were established by further transfection with the human glucagon receptor (clone pLJ6′ in pHZ-1 vector).
The cells were cultured at 5% CO2 in DMEM medium with 10% FBS, 1× GlutaMAX, 1 mg/mL G418, 240 nM MTX (methotrexate) and 1% pen/strep (penicillin/streptomycin). They were aliquoted and stored in liquid nitrogen. Before each assay, an aliquot was taken up and washed three times in PBS before being suspended at the desired concentration in assay buffer. For 96-well plates the suspension was made to give a final concentration of 5×10 EE3 cells/well.
Assay Medium consisted of DMEM w/o phenol red, 10 mM Hepes, lx GlutaMAX, 2% Ovalbumin and 0.2% Pluronic F-68.
Cell stocks were thawed in a 37° C. water bath. Cells were washed three times in PBS. The cells were counted and adjusted to 5×10 EE3 cells/50 μl (1×10 EE5 cells/mL) in Assay Medium. A 50 μl aliquot of cells was transferred to each well in the assay plate.
Stocks of the test compounds and reference compounds were diluted to a concentration of […] in Assay Medium. Compounds were diluted 10-fold to give the following concentrations: […], 2×10 EE-7 M, 2×10 EE-8 M; 2×10 EE-9 M, 2×10 EE-10 M, 2×10 EE-11 M, 2×10 EE-12 M and 2×10 EE-13 M. For each compound a blank assay buffer control was also included.
A 50 μl aliquot of compound or blank was transferred from the dilution plate to the assay plate. Compounds were tested at the following final concentrations: 1×10 EE-6 M, 1×10 EE-7 M, 1×10 EE-8 M; 1×10 EE-9 M, 1×10 EE-10 M, 1×10 EE-11 M and 1×10 EE-12 M and 1×10 EE-13 M.
The assay plate was incubated for 3 h in a 5% CO2 incubator at 37° C. The assay plate was removed from the incubator and allowed to stand at room temperature for 15 min. A 100 μl aliquot of steadylite plus reagent was added to each well of the assay plate (reagent is light sensitive). Each assay plate was covered with aluminum foil to protect it from light and shaken for 30 min at room temperature. Each assay plate was read in a Packard TopCount NXT instrument.
The data from the TopCount instrument was transferred to GraphPad Prism software. The software performed a non-linear regression (log(agonist) vs response-Variable slope (four parameter)). EC50 values were calculated by the software and reported in pM.

physchem = format: physicochemical; settings: pH 7.5
Text: Assay (III): ThT Fibrillation Assay for the Assessment of Physical Stability of Peptide Compositions The purpose of this assay is to assess the physical stability of the glucagon derivatives of the invention in aqueous solutions. Low physical stability of a peptide may lead to amyloid fibril formation, which is observed as well-ordered, thread-like macromolecular structures in the sample, which eventually may lead to gel formation. This has traditionally been measured by visual inspection of the sample. However, that kind of measurement is very cumbersome and depending on the observer. Therefore, the application of a small molecule indicator probe is much more advantageous. Thioflavin T (ThT) is such a probe and has a distinct fluorescence signature when binding to fibrils [Naiki et al. (1989) Anal. Biochem. 177, 244-249; LeVine (1999) Methods. Enzymol. 309, 274-284]. Here, as depicted in FIG. 1, F is the ThT fluorescence at the time t. The constant t0 is the time needed to reach 50% of maximum fluorescence. The two important parameters describing fibril formation are the lag-time calculated by t0−2τ and the apparent rate constant kapp 1/τ. Samples were prepared freshly before each assay. Each sample composition is described in the legends. The pH of the sample was adjusted to the desired value using appropriate amounts of concentrated NaOH and HCl. Thioflavin T was added to the samples from a stock solution in H2O to a final concentration of 1 μM. Sample aliquots of 200 μl (250 μM of the glucagon derivative/analogue in 10 mM HEPES buffer, pH 7.5) were placed in a 96 well microtiter plate (Packard OptiPlate™-96, white polystyrene). Usually, four or eight replica of each sample (corresponding to one test condition) was placed in one column of wells. The plate was sealed with Scotch Pad (Qiagen). Incubation at given temperature, shaking and measurement of the ThT fluorescence emission were done in a Fluoroskan Ascent FL fluorescence platereader (Thermo Labsystems). The plate was incubated 37° C. with orbital shaking adjusted to 960 rpm with an amplitude of 1 mm. Fluorescence measurement was done using excitation through a 444 nm filter and measurement of emission through a 485 nm filter. Each run was initiated by incubating the plate at the assay temperature for 10 min. The plate was measured every 20 minutes for a desired period of time. Between each measurement, the plate was shaken and heated as described. After completion of the ThT assay the four or eight replica of each sample was pooled and centrifuged at 20000 rpm for 30 minutes at 18° C. The supernatant was filtered through a 0.22 μm filter and an aliquot was transferred to a HPLC vial. The concentration of peptide in the initial sample and in the filtered supernatant was determined by reverse phase HPLC using an appropriate standard as reference. The percentage fraction the concentration of the filtered sample constituted of the initial sample concentration was reported as the recovery. The measurement points were saved in Microsoft Excel format for further processing and curve drawing and fitting was performed using GraphPad Prism. The background emission from ThT in the absence of fibrils was negligible. The data points were typically a mean of four or eight samples and shown with standard deviation error bars. Only data obtained in the same experiment (i.e. samples on the same plate) were presented in the same graph ensuring a relative measure of fibrillation between experiments. The data set may be fitted to Eq. (1).

T1 sequence (P47871 26-477): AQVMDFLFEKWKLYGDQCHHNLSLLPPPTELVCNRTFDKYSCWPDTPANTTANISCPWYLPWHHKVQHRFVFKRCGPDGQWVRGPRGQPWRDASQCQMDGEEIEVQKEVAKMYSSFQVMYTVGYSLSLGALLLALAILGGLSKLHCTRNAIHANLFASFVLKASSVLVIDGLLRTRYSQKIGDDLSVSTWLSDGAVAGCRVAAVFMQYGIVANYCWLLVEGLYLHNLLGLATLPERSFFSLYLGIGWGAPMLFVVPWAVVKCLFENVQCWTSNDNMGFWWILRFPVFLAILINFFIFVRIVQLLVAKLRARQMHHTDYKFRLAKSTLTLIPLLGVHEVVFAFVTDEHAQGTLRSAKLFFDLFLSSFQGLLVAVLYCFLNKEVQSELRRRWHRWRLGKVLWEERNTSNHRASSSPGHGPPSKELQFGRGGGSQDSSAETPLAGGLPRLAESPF

| SMILES | EC50 (human glucagon receptor) [pM] | recovery at 250 μM (physchem) [%] |
| --- | --- | --- |
| CC(=O)N[C@@H](CCC(=O)N[C@@H](CCC(=O)N[C@@H](CCC(=O)N[C@@H](CCC(=O)NCCCC[C@H](NC(=O)[C@@H](NC(=O)[C@H](CO)NC(=O)[C@H](CC(C)C)NC(=O)[C@H](CC(C)C)NC(=O)[C@H](Cc1c[nH]c2ccccc12)NC(=O)[C@H](CCC(N)=O)NC(=O)[C@@H](NC(=O)[C@H](Cc1ccccc1)NC(=O)[C@H](CCC(=O)O)NC(=O)[C@H](CCC(N)=O)NC(=O)[C@H](C)NC(=O)[C@H](CCCNC(=N)N)NC(=O)[C@H](CCCNC(=N)N)NC(=O)[C@H](CO)NC(=O)[C@H](CCC(=O)O)NC(=O)[C@H](CC(C)C)NC(=O)[C@H](Cc1ccc(O)cc1)NC(=O)[C@H](CCCCN)NC(=O)[C@H](CO)NC(=O)[C@H](Cc1ccc(O)cc1)NC(=O)[C@H](CC(=O)O)NC(=O)[C@H](CO)NC(=O)[C@@H](NC(=O)[C@H](Cc1ccccc1)NC(=O)[C@@H](NC(=O)CNC(=O)[C@H](Cc1c[nH]cn1)NC(=O)[C@H](CO)NC(=O)CCc1c[nH]cn1)[C@@H](C)O)[C@@H](C)O)C(C)C)[C@@H](C)O)C(=O)O)C(=O)O)C(=O)O)C(=O)O)C(=O)O [Example 16, N^α([Imp1, His3, Glu15, Glu21, Leu27, Ser28]-Glucagonyl)-N{Epsilon}[(4S)-4-[[(4S)-4-[[(4S)-4-[[(4S)-4-acetamido-4-carboxybutanoyl]amino]-4-carboxybutanoyl]amino]-4-carboxybutanoyl]amino]-4-carboxybutanoyl]Lys] (Desaminohistidyl-SHGTFTSDYSKYLESRRAQEFVQWLLSTK([γGlu-γGlu-γGlu-γGlu-Ac])-OH) | 4 | 61 |
| CC(=O)N[C@@H](CCC(=O)N[C@@H](CCC(=O)N[C@@H](CCC(=O)N[C@@H](CCC(=O)NCCCC[C@H](NC(=O)[C@@H](NC(=O)[C@H](Cc1ccccc1)NC(=O)[C@H](CC(=O)O)NC(=O)[C@H](CCC(N)=O)NC(=O)[C@H](C)NC(=O)[C@H](CCCNC(=N)N)NC(=O)[C@H](CCCNC(=N)N)NC(=O)[C@H](CO)NC(=O)[C@H](CCC(=O)O)NC(=O)[C@H](CC(C)C)NC(=O)[C@H](Cc1ccc(O)cc1)NC(=O)[C@H](CCCCN)NC(=O)[C@H](CO)NC(=O)[C@H](Cc1ccc(O)cc1)NC(=O)[C@H](CC(=O)O)NC(=O)[C@H](CO)NC(=O)[C@@H](NC(=O)[C@H](Cc1ccccc1)NC(=O)[C@@H](NC(=O)CNC(=O)[C@H](Cc1c[nH]cn1)NC(=O)C(C)(C)NC(=O)CCc1c[nH]cn1)[C@@H](C)O)[C@@H](C)O)C(C)C)C(=O)N[C@@H](Cc1c[nH]c2ccccc12)C(=O)N[C@@H](CC(C)C)C(=O)N[C@@H](CC(C)C)C(=O)N[C@@H](CO)C(=O)N[C@H](C(=O)O)[C@@H](C)O)C(=O)O)C(=O)O)C(=O)O)C(=O)O [Example 2, N^ϵ24-[(4S)-4-[[(4S)-4-[[(4S)-4-[[(4S)-4-acetamido-4-carboxybutanoyl]amino]-4-carboxybutanoyl]amino]-4-carboxybutanoyl]amino]-4-carboxybutanoyl]-[Imp1, Aib2, His3, Glu15, Lys24, Leu27, Ser28]-Glucagon] (Desaminohistidyl-[Aib]HGTFTSDYSKYLESRRAQDFVK([γGlu-γGlu-γGlu-γGlu-Ac])WLLST-OH) | 5 | 104 |
| CC(=O)N[C@@H](CCC(=O)N[C@@H](CCC(=O)N[C@@H](CCC(=O)NCCCC[C@H](NC(=O)[C@@H](NC(=O)[C@H](Cc1ccccc1)NC(=O)[C@H](CCC(=O)O)NC(=O)[C@H](CCC(N)=O)NC(=O)[C@H](C)NC(=O)[C@H](CCCNC(=N)N)NC(=O)[C@H](CCCNC(=N)N)NC(=O)[C@H](CO)NC(=O)[C@H](CCC(=O)O)NC(=O)[C@H](CC(C)C)NC(=O)[C@H](Cc1ccc(O)cc1)NC(=O)[C@H](CCCCN)NC(=O)[C@H](CO)NC(=O)[C@H](Cc1ccc(O)cc1)NC(=O)[C@H](CC(=O)O)NC(=O)[C@H](CO)NC(=O)[C@@H](NC(=O)[C@H](Cc1ccccc1)NC(=O)[C@@H](NC(=O)CNC(=O)[C@H](Cc1c[nH]cn1)NC(=O)[C@H](CO)NC(=O)CCc1c[nH]cn1)[C@@H](C)O)[C@@H](C)O)C(C)C)C(=O)N[C@@H](Cc1c[nH]c2ccccc12)C(=O)N[C@@H](CC(C)C)C(=O)N[C@@H](CC(C)C)C(=O)N[C@@H](CO)C(=O)N[C@H](C(=O)O)[C@@H](C)O)C(=O)O)C(=O)O)C(=O)O [Example 18, N^ϵ24-[(4S)-4-[[(4S)-4-[[(4S)-4-acetamido-4-carboxybutanoyl]amino]-4-carboxybutanoyl]amino]-4-carboxybutanoyl]-[Imp1, His3, Glu15, Glu21, Lys24, Leu27, Ser28]-Glucagon] (Desaminohistidyl-SHGTFTSDYSKYLESRRAQEFVK([γGlu-γGlu-γGlu-Ac])WLLST-OH) | 6 | 100 |
